Patent US20220146526A1, “METHOD FOR EVALUATING SAMPLE, ANALYSIS METHOD, METHOD FOR DETECTING DEGRADED SAMPLE, MARKER FOR DETECTING DEGRADED BLOOD PLASMA SAMPLE, AND MARKER FOR DETECTING DEGRADED SERUM SAMPLE” (SHIMADZU CORPORATION, priority 2019, published 2022)
Blank lines part the entries; values can stand above or below the compound they belong to.

Key:
Type in all cases: physicochemical, human
[1] = GC/MS of serum sample: time from centrifugation to isolation (Table H); design: key to Rate of increase or decrease / Rate of increase or decrease (first value, increase): detection intensity relative to 1 at 30 min centrifugation-to-isolation; details: for Rate of increase or decrease: detection intensity relative to 1 at 30 minutes; for Increase or decrease: detection intensity
Description: (§1) After standing, the blood sample was subjected to centrifugation under a condition of room temperature, 3500 rpm, and 5 minutes. […] After centrifugation, the blood-collecting vessel was left to stand at room temperature, and the serum was isolated during this time. Here, in order to investigate how the detection intensity of molecules contained in the sample was affected in cases where the time during which the blood-collecting vessel was left at room temperature was set to 1 hour and 6 hours as compared to that in a case where the time was set to 30 minutes, preparations were performed under the respective conditions of 30 minutes, 1 hour, and 6 hours. The obtained serum sample was frozen and stored. Here, in order to investigate how the detection intensity of molecules contained in the sample was affected in cases where freezing and thawing was performed 4 times, 6 times, and 10 times after freezing as compared to that in a case where freezing and thawing was performed 2 times after freezing, freezing and thawing was performed under the respective conditions of 2, 4, 6, and 10 times.
(§2) Frozen blood plasma samples and serum samples were subjected to GC/MS or LC/MS. In GC/MS, the blood plasma samples and serum samples were subjected to methoxymation and trimethylsilylation and then introduced to GC-MS.
(§3) GC/MS was conducted using GCMS·TQ8040 (Shimadzu Corporation) that was a GC·MS equipped with AOC·20i (Shimadzu Corporation) as an autosampler.
(§4) Column: BPX5 (inner diameter of 0.25 mm, length of 30 m, and film thickness of 0.25 μm) (SGE)
(§5) Column temperature: maintained at 60° C. for 2 minutes, then raised at 15° C./min, and maintained at 330° C. for 3 minutes.
(§6) Inlet temperature: 250° C.
(§7) Carrier gas control mode: constant linear velocity of 39.0 cm/sec
(§8) Sample introduction method: split (split ratio of 30:1) Injection volume: 1 μL
(§9) Ionization method: electron ionization
(§10) Ionization current: 60 μA
(§11) Interface temperature: 280° C.
(§12) Ion source temperature: 200° C.
(§13) Mode: multiple reaction monitoring (MRM)
The rate of increase or decrease in Table H is the value of detection intensity relative to 1 that is the detection intensity in a case where the time from centrifugation to isolation is set to 30 minutes.

[2] = GC/MS of serum sample: number of times of freezing and thawing (Table I); design: key to Rate of increase or decrease / Rate of increase or decrease (first value, increase): detection intensity relative to 2 freeze-thaw cycles = 1; details: for Rate of increase or decrease: detection intensity relative to 1 at 2 times; for Number of times when compound is affected: detection intensity changed by 30% or more vs 2 times of freezing and thawing
Description: as §1, §2, §3, §4, §5, §6, §7, §8, §9, §10, §11, §12, §13
The rate of increase or decrease in Table I is the value of detection intensity relative to 1 that is the detection intensity in a case where the number of times of freezing and thawing is set to 2 times.

[3] = GC/MS of serum sample: time from blood collection to centrifugation (Table G); details: blood collection to centrifugation; for Rate of increase or decrease: detection intensity relative to 1 at 15 minutes; for Increase or decrease: detection intensity
Description: as §1, §2, §3, §4, §5, §6, §7, §8, §9, §10, §11, §12, §13
The rate of increase or decrease in Table G is the value of detection intensity relative to 1 that is the detection intensity in a case where the time from blood collection to centrifugation is set to 15 minutes.

[4] = LC/MS of serum sample: number of times of freezing and thawing (Table M); design: key to Rate of increase or decrease: detection intensity relative to 1 at 2 freeze-thaw cycles; details: for Rate of increase or decrease: detection intensity relative to 1 at 2 times; for Number of times when compound is affected / Increase or decrease: serum sample, LC/MS; for Number of times when compound is affected: detection intensity changed by 30% or more vs 2 times of freezing and thawing; for Increase or decrease: detection intensity vs 2 times of freezing and thawing
Description: as §1, §2
Analysis column: Discovery HS F5-3 (inner diameter of 2.1 mm, length of 150 mm, film thickness of 3 μm) (Sigma-Aldrich)
Column temperature: 40° C.
(A) 0.1% formic acid (dissolved in water)
(B) 0.1% formic acid (dissolved in acetonitrile)
Flow velocity: 0.25 mL/min
Ionization method: electrospray
Temperature: • Desolvation Line (DL) temperature: 250° C. • Heat block temperature: 400° C. • Interface temperature: 300° C.
Gas flow rate: • Nebulizer gas flow rate: 3.0 L/min • Drying gas flow rate: 10.0 L/min • Heating gas flow rate: 10.0 L/min
as §13
The rate of increase or decrease in Table M is the value of detection intensity relative to 1 that is the detection intensity in a case where the number of times of freezing and thawing is set to 2 times.

[5] = 10 times of freezing and thawing
[6] = serum sample, GC/MS, detection intensity vs 2 times of freezing and thawing
[7] = 6 times of freezing and thawing

Compound: O=C(O)c1ccc(CO)o1 [5-Hydroxymethyl-2-furancarboxylic acid]
Rate of increase or decrease ([1]; after 1 hour): 1.71 | Increase or decrease ([1]; after 1 hour vs 30 minutes): Increase

Compound: CCCCCCCCC(=O)O [Pelargonic acid, pelargonic acid]
Rate of increase or decrease [2, 5]: 0.67 | Number of times when compound is affected ([2]; serum sample, GC/MS): 10 times | Increase or decrease [2, 6]: Decrease

Compound: O=C(O)CCO [3-Hydroxypropionic acid]
Increase or decrease ([1]; after 6 hours vs 30 minutes): Different from individual | Rate of increase or decrease (second value, decrease) ([1]; different from individual to individual, individuals with decrease, relative to 1 at 30 minutes, after 6 hours): 0.65 | Rate of increase or decrease (first value, increase) ([1]; different from individual to individual, individuals with increase, relative to 1 at 30 minutes, after 6 hours): 1.91 | Rate of increase or decrease ([2]; serum, GC/MS, freezing and thawing 4 times): 0.55 | Increase or decrease ([2]; detection intensity, serum, GC/MS, freezing and thawing 4 times vs 2 times): Decrease

Compound: CC(=O)NCC(=O)O [Acetylglycine]
Rate of increase or decrease ([3]; after 4 hours): 0.68 | Increase or decrease ([3]; after 4 hours vs 15 minutes): Decrease

Compound: O[C@H]1[C@H](O)[C@@H](O)[C@H](O)[C@@H](O)[C@H]1O [Inositol]
Rate of increase or decrease ([3]; after 8 hours): 1.46 | Increase or decrease ([3]; after 8 hours vs 15 minutes): Increase

Compound: Nc1c(O)cccc1C(=O)O [3-Hydroxyanthranyl acid]
Rate of increase or decrease ([3]; after 4 hours): 0.59 | Increase or decrease ([3]; after 4 hours vs 15 minutes): Decrease | Rate of increase or decrease ([2]; serum, GC/MS, freezing and thawing 6 times): 1.34 | Increase or decrease ([2]; detection intensity, serum, GC/MS, freezing and thawing 6 times vs 2 times): Increase

Compound: O=C(O)[C@H](O)[C@@H](O)[C@H](O)[C@H](O)CO [Gluconic acid]
Increase or decrease ([3]; after 12 hours vs 15 minutes): Increase

Compound: CC(C)(O)CC(=O)O [3-Hydroxyisovaleric acid]
Rate of increase or decrease ([3]; after 12 hours): 1.35 | Increase or decrease ([3]; after 12 hours vs 15 minutes): Increase

Compound: CCCCCCCCCC(=O)O [Decanoic acid]
Rate of increase or decrease ([3]; after 8 hours): 0.69 | Increase or decrease ([3]; after 8 hours vs 15 minutes): Decrease

Compound: CSCC[C@H](N)C(=O)O [Methionine, methionine]
Rate of increase or decrease [4, 7]: 0.69 | Number of times when compound is affected [4]: 6 times | Increase or decrease [4]: Decrease

Compound: OC[C@@H](O)[C@@H](O)CO [Meso-erythritol]
Rate of increase or decrease ([3]; after 8 hours): 0.66 | Increase or decrease ([3]; after 8 hours vs 15 minutes): Decrease | Rate of increase or decrease [2, 5]: 0.69 | Number of times when compound is affected ([2]; serum sample, GC/MS): 10 times | Increase or decrease [2, 6]: Decrease

Results, then the compound that gave them:

Rate of increase or decrease ([3]; after 4 hours): 1.52 | Increase or decrease ([3]; after 4 hours vs 15 minutes): Increase | Rate of increase or decrease [2, 5]: 0.61 | Number of times when compound is affected ([2]; serum sample, GC/MS): 10 times | Increase or decrease [2, 6]: Decrease
Compound: Cc1ncc(CO)c(CN)c1O [Pyridoxamine]

Rate of increase or decrease [4, 7]: 0.60 | Number of times when compound is affected [4]: 6 times | Increase or decrease [4]: Decrease
Compound: N[C@@H](Cc1ccc(O)cc1)C(=O)O [Tyrosine, tyrosine]

Rate of increase or decrease [4, 5]: 0.57 | Number of times when compound is affected [4]: 10 times | Increase or decrease [4]: Decrease
Compound: N[C@@H](Cc1ccccc1)C(=O)O [Phenylalanine, phenylalanine]

Rate of increase or decrease ([1]; after 6 hours): 1.34 | Increase or decrease ([1]; after 6 hours vs 30 minutes): Increase | Rate of increase or decrease [2, 5]: 1.69 | Number of times when compound is affected ([2]; serum sample, GC/MS): 10 times | Increase or decrease [2, 6]: Increase
Compound: CC(=NO)C(=O)O [Pyruvic oxime]

Rate of increase or decrease ([3]; after 4 hours): 0.65 | Increase or decrease ([3]; after 4 hours vs 15 minutes): Decrease | Rate of increase or decrease ([1]; after 1 hour): 0.66 | Increase or decrease ([1]; after 1 hour vs 30 minutes): Decrease
Compound: CC(=O)C(=O)O [Pyruvic acid]

Rate of increase or decrease [4, 5]: 0.56 | Number of times when compound is affected [4]: 10 times | Increase or decrease [4]: Decrease
Compound: CC(C)[C@H](N)C(=O)O [Valine, valine]
